In the test the target is T1, Recombinant human TPH1 (MBP tagged) (Homo sapiens, UniProt P17752).
T1 construct: cloning full length human TPH1 cDNA in to a bacterial pMAL-c5E expression vector; made in house; host or cells: E. coli BL21 (DE3)
T1 sequence (P17752 1-444): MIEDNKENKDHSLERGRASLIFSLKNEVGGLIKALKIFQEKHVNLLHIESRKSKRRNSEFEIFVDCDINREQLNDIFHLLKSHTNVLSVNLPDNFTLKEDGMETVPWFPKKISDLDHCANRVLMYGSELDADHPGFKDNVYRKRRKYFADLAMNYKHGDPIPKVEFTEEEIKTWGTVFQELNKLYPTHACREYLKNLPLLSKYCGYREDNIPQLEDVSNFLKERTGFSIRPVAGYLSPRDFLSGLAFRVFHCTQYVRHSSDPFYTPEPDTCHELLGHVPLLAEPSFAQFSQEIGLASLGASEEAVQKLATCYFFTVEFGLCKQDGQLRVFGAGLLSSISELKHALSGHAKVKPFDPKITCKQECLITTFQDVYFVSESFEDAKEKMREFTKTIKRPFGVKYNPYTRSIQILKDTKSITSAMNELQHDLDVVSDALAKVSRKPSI
The experiment in a line: TPH1 in vitro inhibition assay (kinetic fluorescence). It counts as biochemical. To be noted: read-out: TPH1 Range (TPH1 inhibition IC50). The essentials:
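Final mix: 15 nM MBP-TPH1, 30 μM Trp, 36 μM 6-methyltetrahydropterin, 25 μM ferrous ammonium sulfate, 50 mM MES pH 7.1, 1% DMSO, room temperature.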

A word on the IC50: it is the midpoint of a concentration-inhibition curve.

In the case of `Cc1ccn(-c2cc(-c3cccc(C(=O)O)c3)ccc2[C@@H](Oc2cc(N3CCC4(CC3)CN[C@H](C(=O)O)C4)nc(N)n2)C(F)(F)F)n1` [Example 1d, (S)-8-(2-amino-6-((R)-1-(3′-carboxy-3-(3-methyl-1H-pyrazol-1-yl)-[1,1′-biphenyl]-4-yl)-2,2,2-trifluoroethoxy)pyrimidin-4-yl)-2,8-diazaspiro[4.5]decane-3-carboxylic acid], the half-maximal inhibitory concentration (IC50) was < 50 nM.

For the compound `Cc1ccn(-c2cc(C3=CCNCC3)ccc2[C@@H](Oc2cc(N3CCC4(CC3)CN[C@H](C(=O)O)C4)nc(N)n2)C(F)(F)F)n1` [Example 1f, (S)-8-(2-amino-6-((R)-2,2,2-trifluoro-1-(2-(3-methyl-1H-pyrazol-1-yl)-4-(1,2,3,6-tetrahydropyridin-4-yl)phenyl)ethoxy)pyrimidin-4-yl)-2,8-diazaspiro[4.5]decane-3-carboxylic acid], the IC50 was 50 to 300 nM.

Take `Cc1ccn(-c2cc(-c3cnoc3)ccc2[C@@H](Oc2cc(N3CCC4(CC3)CN[C@H](C(=O)O)C4)nc(N)n2)C(F)(F)F)n1` [Example 1i, (S)-8-(2-amino-6-((R)-2,2,2-trifluoro-1-(4-(isoxazol-4-yl)-2-(3-methyl-1H-pyrazol-1-yl)phenyl)ethoxy)pyrimidin-4-yl)-2,8-diazaspiro[4.5]decane-3-carboxylic acid]: the 50% inhibitory concentration (IC50) was 50 to 300 nM.

Regarding `Cc1ccn(-c2cc(C3=CCOCC3)ccc2[C@@H](Oc2cc(N3CCC4(CC3)CN[C@H](C(=O)O)C4)nc(N)n2)C(F)(F)F)n1` [Example 1j, (S)-8-(2-amino-6-((R)-1-(4-(3,6-dihydro-2H-pyran-4-yl)-2-(3-methyl-1H-pyrazol-1-yl)phenyl)-2,2,2-trifluoroethoxy)pyrimidin-4-yl)-2,8-diazaspiro[4.5]decane-3-carboxylic acid], the IC50 lay in the range of 50 to 300 nM.

For the compound `CC(=O)N1CC=C(c2ccc([C@@H](Oc3cc(N4CCC5(CC4)CN[C@H](C(=O)O)C5)nc(N)n3)C(F)(F)F)c(-n3ccc(C)n3)c2)CC1` [Example 1k, (S)-8-(6-((R)-1-(4-(1-acetyl-1,2,3,6-tetrahydropyridin-4-yl)-2-(3-methyl-1H-pyrazol-1-yl)phenyl)-2,2,2-trifluoroethoxy)-2-aminopyrimidin-4-yl)-2,8-diazaspiro[4.5]decane-3-carboxylic acid], the IC50 is < 50 nM.

For `CCOc1ccc(-c2ccc([C@@H](Oc3cc(N4CCC5(CC4)CN[C@H](C(=O)O)C5)nc(N)n3)C(F)(F)F)c(-n3ccc(C)n3)c2)cc1` [Example 1q, (S)-8-(2-amino-6-((R)-1-(4′-ethoxy-3-(3-methyl-1H-pyrazol-1-yl)-[1,1′-biphenyl]-4-yl)-2,2,2-trifluoroethoxy)pyrimidin-4-yl)-2,8-diazaspiro[4.5]decane-3-carboxylic acid], the IC50 was < 50 nM.

Take `COc1ncc(-c2ccc([C@@H](Oc3cc(N4CCC5(CC4)CN[C@H](C(=O)O)C5)nc(N)n3)C(F)(F)F)c(-n3ccc(C)n3)c2)cn1` [Example 1r, (S)-8-(2-amino-6-((R)-2,2,2-trifluoro-1-(4-(2-methoxypyrimidin-5-yl)-2-(3-methyl-1H-pyrazol-1-yl)phenyl)ethoxy)pyrimidin-4-yl)-2,8-diazaspiro[4.5]decane-3-carboxylic acid]: the IC50 is < 50 nM.

Consider `COc1ccc(-c2ccc([C@@H](Oc3cc(N4CCC5(CC4)CN[C@H](C(=O)O)C5)nc(N)n3)C(F)(F)F)c(-n3ccc(C)n3)c2)cn1` [Example 1s, (S)-8-(2-amino-6-((R)-2,2,2-trifluoro-1-(4-(6-methoxypyridin-3-yl)-2-(3-methyl-1H-pyrazol-1-yl)phenyl)ethoxy)pyrimidin-4-yl)-2,8-diazaspiro[4.5]decane-3-carboxylic acid], for which the IC50 was < 50 nM.

Take `Cc1ccn(-c2cc(-c3ccccc3)ccc2[C@@H](Oc2cc(N3CCC4(CC3)CN[C@H](C(=O)O)C4)nc(N)n2)C(F)(F)F)n1` [Example 1u, (S)-8-(2-amino-6-((R)-2,2,2-trifluoro-1-(3-(3-methyl-H-pyrazol-1-yl)-[1,1′-biphenyl]-4-yl)ethoxy)pyrimidin-4-yl)-2,8-diazaspiro[4.5]decane-3-carboxylic acid]: the IC50 is < 50 nM.

Values taken from patent US11759462B2, “Spirocyclic compounds as tryptophan hydroxylase inhibitors” (priority 2013, dated 2023).
